A word on the IC50: it is the concentration at which inhibition is half-maximal. A low value points to inhibition by little substance.

Consider 25 molecules from patent US9499493B2, “2,4-pyrimidinediamine compounds and their uses” (Rigel Pharmaceuticals, Inc., priority 2002, dated 2016).

Structures are written as SMILES. Where only a bound is given, the exact number is not on record here.

For assay [1], the system named is cultured human mast cells (CHMC). Nature of the assay: CHMC low cell density IgE activation: tryptase assay. Format: cell-based. The conditions noted are these: anti-IgE. The method in brief:
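Low-density CHMC assay: donor-adjusted 1000-1500 cells/well, MT buffer, 1 hr 37° C preincubation; anti-IgE stimulus 30 min 37° C versus MT-only controls; supernatant tryptase by substrate, 30 min RT.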

For assay [2] the test system is unchanged. In words: CHMC low cell density ionomycin activation: tryptase assay. Format: cell-based.

Regarding `COC(=O)c1cc(Nc2ncc(F)c(Nc3ccc(OC(C)C)cc3)n2)cn1C` [R935164, 5-Fluoro-N4-(4-isopropoxyphenyl)-N2-[(N-methyl-2-methoxycarbonyl)pyrrol-4-yl]-2,4-pyrimidinediamine], the half-inhibitory concentration (IC50) in assay [1] was 204 nM; in assay [2] it was above 10000 nM.

For `COC(=O)c1cc(Nc2nc(Nc3ccc4c(c3)OCCO4)ncc2F)cn1C` [R935166, N2-(3,4-Ethylenedioxyphenyl)-5-fluoro-N4-[(N-methyl-2-methoxycarbonyl)pyrrol-4-yl]-2,4-pyrimidinediamine], the IC50 in assay [1] is 568 nM; in assay [2], above 10000 nM.

Regarding `CCOC(=O)C(C)(C)c1ccc(Nc2nc(Nc3ccc(OC(C)C)cc3)ncc2F)cc1` [R935167, N4-[4-[(1-Ethoxycarbonyl-1-methyl)ethyl]phenyl]-5-fluoro-N2-(4-isopropoxyphenyl)-2,4-pyrimidinediamine], the IC50 in assay [1] is 2130 nM; in assay [2] it was above 10000 nM.

On to `CCOC(=O)C(C)(C)c1ccc(Nc2nc(Nc3cccc(O)c3)ncc2F)cc1` [R935169, N4-[4-[(1-Ethoxycarbonyl-1-methyl)ethyl]phenyl]-5-fluoro-N2-(3-hydroxyphenyl)-2,4-pyrimidinediamine], for which the half-maximal inhibitory concentration (IC50) in assay [1] came to 999 nM; in assay [2], 8010 nM.

Take `CC(C)(CO)c1ccc(Nc2ncc(F)c(Nc3cccc(O)c3)n2)cc1` [R935171, 5-Fluoro-N2-[4-(2-hydroxy-1,1-dimethylethyl)phenyl]-N4-(3-hydroxyphenyl)-2,4-pyrimidinediamine]: the IC50 was 536 nM in assay [1] and above 10000 nM in assay [2].

On to `CCOC(=O)C(C)(C)c1ccc(Nc2nc(Nc3ccc4c(c3)OCCO4)ncc2F)cc1` [R935172], for which the values for the half-inhibitory concentration (IC50) in assay [1] and in assay [2] were 1380 nM and 6810 nM, respectively.

With `CC(C)(CO)c1ccc(Nc2nc(Nc3ccc4c(c3)OCCO4)ncc2F)cc1` [R935173, N2-(3,4-Ethylenedioxyphenyl)-5-fluoro-N4-[4-(2-hydroxy-1,1-dimethylethyl)phenyl]-2,4-pyrimidinediamine], the half-maximal inhibitory concentration (IC50) in assay [1] is 454 nM; in assay [2], above 10000 nM.

With `CC(C)(CO)c1ccc(Nc2ncc(F)c(Nc3ccc4oc(CO)cc4c3)n2)cc1` [R935177, 5-Fluoro-N2-[4-(2-hydroxy-1,1,dimethylethyl)phenyl]-N4-(2-hydroxymethylbenzofur-5-yl)-2,4-pyrimidinediamine], the results for the IC50 in assay [1] and in assay [2] were 889 nM and above 10000 nM, respectively.

For `OCC(O)COc1ccc(Nc2ncc(F)c(Nc3ccc4c(c3)OCCO4)n2)cc1` (centres unmarked) [R935179, N2-[4-(2,3-Dihydroxypropoxy)phenyl]-N4-(3,4-ethylenedioxypheny)-5-fluoro-2,4-pyrimidinediamine], the IC50 in assay [1] was 557 nM; in assay [2], above 10000 nM.

Regarding `COC(=O)COc1ccc(Nc2ncc(F)c(Nc3ccc4c(c3)OCCCO4)n2)cc1` [R935182, 5-Fluoro-N2-[4-(methoxycarbonylmethyleneoxy)phenyl]-N4-(3,4-propylenedioxyphenyl)-2,4-pyrimidinediamine], the IC50 in assay [1] is 124 nM; in assay [2] it was 2470 nM.

For the molecule `OCCOc1ccc(Nc2ncc(F)c(Nc3ccc4c(c3)OCCCO4)n2)cc1` [R935183, 5-Fluoro-N2-[4-(2-hydroxyethoxy)phenyl]-N4-(3,4-propylenedioxyphenyl)-2,4-pyrimidinediamine], the IC50 in assay [1] was 729 nM; in assay [2], above 10000 nM.

With `CNC(=O)COc1ccc(Nc2ncc(F)c(Nc3ccc4c(c3)OCCCO4)n2)cc1` [R935184, 5-Fluoro-N2-[4-(N-methylamino)carbonylmethyleneoxyphenyl]-N4-(3,4-propylenedioxyphenyl)-2,4-pyrimidinediamine], the IC50 in assay [1] is 605 nM; in assay [2], above 10000 nM.

Turning to `COC(=O)COc1cccc(Nc2ncc(F)c(Nc3ccc4c(c3)OCCCO4)n2)c1` [R935185, 5-Fluoro-N2-[3-(methoxycarbonylmethyleneoxy)phenyl]-N4-(3,4-propylenedioxyphenyl)-2,4-pyrimidinediamine], the figures for the IC50 in assay [1] and in assay [2] were 351 nM and 6640 nM, respectively.

As for `OCCOc1ccc(Nc2ncc(F)c(Nc3ccc4c(c3)OCCCO4)n2)cc1` [R935186, 5-Fluoro-N2-[4-(2-hydroxyethoxy)phenyl]-N4-(3,4-propylenedioxyphenyl)-2,4-pyrimidinediamine], the IC50 was 211 nM in assay [1] and above 10000 nM in assay [2].

In the case of `CCOC(=O)C(C)(Oc1cccc(Nc2nc(Nc3ccc(OC(C)C)cc3)ncc2F)c1)C(=O)OCC` [R935187, N4-[3-(1-Bis(ethoxycarbonyl)ethoxy)phenyl]-5-fluoro-N2-[4-isopropoxyphenyl)-2,4-pyrimidinediamine], the values for the half-maximal inhibitory concentration (IC50) in assay [1] and in assay [2] were 9060 nM and above 10000 nM, respectively.

On to `Fc1cnc(Nc2ccc3cn[nH]c3c2)nc1Nc1ccc2cn[nH]c2c1` [R935188, N2,N4-Bis(indazolin-6-yl)-5-fluoro-2,4-pyrimidinediamine], for which the IC50 in assay [1] was 239 nM; in assay [2] it was above 10000 nM.

In the case of `Fc1cnc(Nc2ccc3[nH]ncc3c2)nc1Nc1ccc2[nH]ncc2c1` [R935189, N2,N4-Bis(indazolin-5-yl)-5-fluoro-2,4-pyrimidinediamine], the figures for the IC50 in assay [1] and in assay [2] were 619 nM and above 10000 nM, respectively.

In the case of `Fc1cnc(Nc2ccc3cn[nH]c3c2)nc1Nc1ccc2c(c1)OCCO2` [R935190, N4-(3,4-Ethylenedioxyphenyl)-5-fluoro-N2-(indazolin-6-yl)-2,4-pyrimidinediamine], the IC50 in assay [1] is 156 nM; in assay [2], above 10000 nM.

Regarding `Cn1ncc2cc(Nc3ncc(F)c(Nc4ccc5c(cnn5C)c4)n3)ccc21` [R935192, N2,N4-Bis(1-methyl-indazolin-5-yl)-5-fluoro-2,4-pyrimidinediamine], the IC50 is 337 nM in assay [1] and above 10000 nM in assay [2].

For the molecule `CC(C)Oc1ccc(Nc2nc(Nc3ccc4[nH]ncc4c3)ncc2F)cc1` [R935197, 5-Fluoro-N2-(indazoline-5-yl)-N4-(4-isopropoxyphenyl)-2,4-pyrimidinediamine], the 50% inhibitory concentration (IC50) in assay [1] is 174 nM; in assay [2], above 10000 nM.

With `Fc1cnc(Nc2ccc3[nH]ncc3c2)nc1Nc1ccc2c(c1)OCCO2` [R935198, N4-(3,4-Ethylenedioxyphenyl)-5-fluoro-N2-(indazoline-5-yl)-2,4-pyrimidinediamine], the IC50 in assay [1] is 126 nM; in assay [2], above 10000 nM.

On to `CNC(=O)COc1cccc(Nc2ncc(F)c(Nc3ccc4c(c3)OCCCO4)n2)c1` [R935202, 5-Fluoro-N2-[3-(N-methylamino)carbonylmethyleneoxyphenyl]-N4-(3,4-propylenedioxyphenyl)-2,4-pyrimidinediamine], for which the IC50 in assay [1] is 181 nM; in assay [2] it was 9760 nM.

With `CC(C)Oc1ccc(Nc2ncc(F)c(Nc3ccc4c(cnn4C)c3)n2)cc1` [R935203, 5-Fluoro-N2-(4-isopropoxyphenyl)-N4-(1-methyl-indazoline-5-yl)-2,4-pyrimidinediamine], the concentration for half-maximal inhibition (IC50) in assay [1] is 562 nM; in assay [2] it was above 10000 nM.

In the case of `Cn1ncc2cc(Nc3nc(Nc4cccc(O)c4)ncc3F)ccc21` [R935204, 5-Fluoro-N2-(3-hydroxyphenyl)-N4-(1-methyl-indazoline-5-yl)-2,4-pyrimidinediamine], the IC50 in assay [1] is 554 nM; in assay [2] it was above 10000 nM.

On to `COC(=O)Cn1ncc2ccc(Nc3ncc(F)c(Nc4ccc5cnn(CC(=O)OC)c5c4)n3)cc21` [R935205, N2,N4-Bis[1-(methoxycarbonyl)methyl-indazoline-6-yl]-5-fluoro-2,4-pyrimidinediamine], for which the IC50 is 2960 nM in assay [1] and above 10000 nM in assay [2].
